12 compounds from ChEMBL document CHEMBL1201862, “PubChem BioAssay data set” (2004) can be followed below.

Molecules are shown by their SMILES. Values joined by “and” are separate entries in the source; they are usually repeats but may differ in a detail not shown here. Identical values can stand only once.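 Exposure lasted 48 hours, with cells grown in 96-well plates and compounds tested at five concentrations. GI50 = concentration required for 50% inhibition of growth.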 Active and inactive are the calls of the source. Rule as the data show it: active = GI50 up to about 1.1 µM and inactive = higher.

What all share (assay): inhibition of tumour cell growth, NCI panel, 48 h
For assay [1], the system named is NCI-H522.
The test system of assay [2] is UACC-62.
The subject of assay [3] is MDA-MB-231.
The subject of assay [4] is HT-29.
The test system of assay [5] is HCT-15.
Assay [6] deals with COLO 205.
Assay [7] concerns MDA-N.
In assay [8] the test system is TK-10.
Assay [9] concerns MDA-MB-435.
Assay [10] relates to HOP-62.
For assay [11], the system named is NCI-H460.
Assay [12] deals with NCI/ADR-RES.
The test system of assay [13] is SF-539.
The subject of assay [14] is SNB-75.
Assay [15] deals with OVCAR-5.
The subject of assay [16] is HCT-116.
The subject of assay [17] is IGROV-1.
In assay [18] the test system is NCI-H226.
In assay [19] the test system is SR.

Regarding `Brc1cccc(C2ON=C(c3ccccc3)N2C23CC4CC(CC(C4)C2)C3)c1` (stereo not given), the GI50 in [1] is > 10 µM (inactive); in [2], > 10 µM (inactive); in [3], > 10 µM (inactive); in assay [4], > 10 µM (inactive); in assay [5] it was greater than 10 µM; in assay [6], > 10 µM (inactive). Also, the GI50 in assay [7], in [8], in [9], in assay [10], in assay [11] and in [12] was > 10 µM (inactive) each time. Besides, the GI50 in assay [13] was > 10 µM (inactive); in [14], 6.19 µM (inactive); in assay [15], > 10 µM (inactive); in [16], > 10 µM (inactive); in [17] it was > 10 µM (inactive); in assay [18], > 10 µM (inactive).

As to `Cc1cc(N(C)C)c2ccccc2[n+]1CCCCCCCCCC[n+]1c(C)cc(N(C)C)c2ccccc21.[O-][Cl+3]([O-])([O-])[O-].[O-][Cl+3]([O-])([O-])[O-]`, the GI50 in assay [1] was 6.1 µM (inactive); in assay [2], 0.989 µM (active); in [3], 0.491 µM (active); in [4], 0.429 µM (active); in assay [5], 3.81 µM; in assay [6], 0.265 µM (active). For the same compound, the GI50 in assay [7] was 0.485 µM (active); in [8] it was 3.29 µM (inactive); in [9], 0.516 µM (active); in [11], 0.348 µM (active); in assay [12], 13.7 µM (inactive); in assay [13], 0.991 µM (active). The GI50 in [14] was 0.47 µM (active); in assay [15], 3.3 µM (inactive); in assay [16], 0.743 µM (active); in [17], 6.05 µM (inactive); in assay [18] it was 3.33 µM (inactive).

For the compound `Cc1ccc2c(=O)c(-c3nnc(NC4CCCCC4)s3)c[nH]c2n1`, the GI50 in assay [1] is > 100 µM (inactive); in [2], > 100 µM (inactive); in assay [3] it was > 100 µM (inactive); in assay [4], > 100 µM (inactive); in [5] it was greater than 100 µM; in [6] it was > 100 µM (inactive). Moreover, the GI50 in assay [7] is 81.7 µM (inactive); in assay [8], > 100 µM (inactive); in [9], > 100 µM (inactive); in [10], > 100 µM (inactive); in assay [11], > 100 µM (inactive); in [12], > 100 µM (inactive). The GI50 in assay [15], in [16], in assay [17] and in [18] was > 100 µM (inactive) throughout.

Regarding `COCC1OC([P+](c2ccccc2)(c2ccccc2)c2ccccc2)CC(OC)C1OC` (stereo not given), the GI50 was 49.5 µM (inactive) in assay [2]; 44.3 µM (inactive) in assay [3]; greater than 100 µM in assay [5]; 37.2 µM (inactive) in assay [7]; 55.7 µM (inactive) in assay [8]; 29.6 µM (inactive) in [9]. The GI50 in assay [12] is > 100 µM (inactive); in assay [15], 51.5 µM (inactive); in assay [16], 32.6 µM (inactive); in [19], 17.4 µM (inactive); in assay [18], 33.9 µM (inactive).

With `O=c1[nH]nc(Cc2ccc([N+](=O)[O-])cc2)n1CCO`, the GI50 in assay [1] is > 100 µM (inactive); in assay [2], > 100 µM (inactive); in assay [3], > 100 µM (inactive); in assay [4], > 100 µM (inactive); in [5], greater than 100 µM; in assay [6], > 100 µM (inactive). Besides, the GI50 in assay [7], in [8], in assay [9], in assay [11], in assay [12] and in assay [13] was > 100 µM (inactive) each time. Further, the GI50 in [15], in assay [16], in assay [17] and in assay [18] was > 100 µM (inactive) throughout.

Regarding `CC(C)[C@H]1C(=O)O[B@-](F)(c2ccccc2)/[N+]1=C\N(C)C`, the GI50 in assay [2] is > 100 µM (inactive); in assay [3], > 100 µM (inactive); in assay [4], > 100 µM (inactive); in [5], greater than 100 µM; in assay [6], > 100 µM (inactive); in assay [7], > 100 µM (inactive). The GI50 in assay [8], in assay [9], in assay [10], in [11], in assay [12] and in [14] was > 100 µM (inactive) in each case. The GI50 in assay [15], in [16], in assay [17], in assay [19] and in assay [18] was > 100 µM (inactive) each time.

On to `O=C(O)c1c(Br)c(Br)c(Br)c(Br)c1C1c2ccc(O)cc2Oc2cc(O)ccc21`, for which the GI50 is > 100 µM (inactive) in assay [1]; > 100 µM (inactive) in assay [2]; > 100 µM (inactive) in assay [3]; > 100 µM (inactive) in assay [4]; greater than 100 µM in assay [5]; > 100 µM (inactive) in assay [6]. For the same compound, the GI50 in assay [7], in [8], in assay [9], in [10], in assay [11] and in [12] was > 100 µM (inactive) in each case. Also, the GI50 in assay [13], in [14], in assay [15], in [16], in assay [17] and in assay [18] was > 100 µM (inactive) throughout.

For `O=C1N/C(=N/N=C\C(O)C(O)C(O)CO)N/C1=C/c1ccc(Cl)cc1` (stereo not given), the GI50 in assay [1] was 22.5 µM (inactive) and 20.4 µM (inactive); in [3], 58.5 µM (inactive) and 44.6 µM (inactive); in assay [4], 44.5 µM (inactive) and 31.8 µM (inactive); in assay [5], 20.6 µM; in assay [6], 42.6 µM (inactive) and 30.1 µM (inactive); in assay [7] it was 46.2 µM (inactive) and 38.5 µM (inactive). Also, the GI50 in assay [8] was > 100 µM (inactive) and 89.7 µM (inactive); in [9], 59.4 µM (inactive) and 43.8 µM (inactive); in assay [10] it was 46.2 µM (inactive) and 40.3 µM (inactive); in [11] it was 33.9 µM (inactive); in assay [12], 55.5 µM (inactive) and 44.5 µM (inactive); in assay [13], 41.5 µM (inactive). Also, the GI50 in [14] is 41.5 µM (inactive) and 32.9 µM (inactive); in [15], 81.1 µM (inactive); in assay [16], 43.9 µM (inactive) and 46.2 µM (inactive); in [17], 30.6 µM (inactive) and 32.9 µM (inactive); in assay [18] it was 21 µM (inactive) and 22.2 µM (inactive).

Consider `Cc1nc2c(Br)cc(Br)cc2c(=O)n1-c1ccccc1N`, for which the GI50 was 30.1 µM (inactive) in [2]; 47.4 µM (inactive) in [3]; 23.9 µM (inactive) in assay [4]; 35.8 µM in assay [5]; 20.7 µM (inactive) in assay [6]; 50.9 µM (inactive) in assay [7]. For the same compound, the GI50 was 39.4 µM (inactive) in assay [9]; 70.5 µM (inactive) in assay [10]; 31.8 µM (inactive) in assay [11]; 45.9 µM (inactive) in assay [12]; 35.2 µM (inactive) in assay [13]; 22.9 µM (inactive) in assay [14]. In addition, the GI50 is 28.8 µM (inactive) in assay [15]; 23.4 µM (inactive) in assay [16]; 38.3 µM (inactive) in [17]; 37 µM (inactive) in assay [19]; 30.3 µM (inactive) in [18].

Consider `COC(=O)C1(C(=O)OC)CC2=C(S(=O)(=O)c3ccccc3)C[C@H](S(=O)(=O)c3ccccc3)[C@H]2C1`, for which the GI50 is 33 µM (inactive) in assay [1]; 23.3 µM (inactive) in assay [2]; 27.4 µM (inactive) in [3]; > 100 µM (inactive) in assay [4]; 35.3 µM in [5]; 62.4 µM (inactive) in assay [6]. In addition, the GI50 was 39.4 µM (inactive) in assay [7]; 52.4 µM (inactive) in assay [8]; 76.4 µM (inactive) in [9]; 78.9 µM (inactive) in assay [10]; 39.6 µM (inactive) in assay [11]; > 100 µM (inactive) in assay [12]. Besides, the GI50 in [14] was 37.8 µM (inactive); in assay [15] it was > 100 µM (inactive); in assay [16] it was 70.5 µM (inactive); in [17] it was 19.9 µM (inactive); in [18], > 100 µM (inactive).

Consider `CCCNC(=S)N/C=C1\C(=O)Nc2ccccc2C1=O`, for which the GI50 was > 100 µM (inactive) in [1]; > 100 µM (inactive) in assay [2]; > 100 µM (inactive) in assay [3]; > 100 µM (inactive) in assay [4]; greater than 100 µM in assay [5]; > 100 µM (inactive) in [6]. The GI50 in assay [7], in assay [8], in assay [9], in assay [10], in assay [11] and in assay [12] was > 100 µM (inactive) in each case. For the same compound, the GI50 in assay [13] is > 100 µM (inactive); in [14], 83.2 µM (inactive); in assay [15] it was > 100 µM (inactive); in [16], > 100 µM (inactive); in assay [17], > 100 µM (inactive); in assay [18], > 100 µM (inactive).

As for `COc1ccc2c(c1)N=C1CSC(c3c(Cl)cccc3[N+](=O)[O-])N1C2` (stereo not given), the GI50 in assay [1] was 31 µM (inactive); in assay [2] it was 22.4 µM (inactive); in assay [3], 33.3 µM (inactive); in [4], 38.2 µM (inactive); in [5] it was 30.8 µM; in assay [6], 24.9 µM (inactive). Moreover, the GI50 in assay [7] is 29.8 µM (inactive); in [8], 48.4 µM (inactive); in [9] it was 27.5 µM (inactive); in assay [10], > 100 µM (inactive); in assay [11] it was 20 µM (inactive); in assay [12], 34.5 µM (inactive). Also, the GI50 in assay [13] was 37.2 µM (inactive); in assay [14], 25.1 µM (inactive); in assay [15], > 100 µM (inactive); in [16], 35.5 µM (inactive); in assay [17], 62.8 µM (inactive); in assay [18] it was 0.918 µM (active).
